Each structure is given as a SMILES string. pIC50: −log10 of the molar value.

This test can be described thus: Inhibitory activity against porcine pancreatic elastase(PPE).
In the case of `CC(C)C[C@@H](COC1CC(=O)N1C(=O)NCc1ccccc1)NC(=O)[C@@H](NC(=O)OC(C)(C)C)C(C)(C)C` (stereo partly drawn) [{(S)-1-[(S)-1-(1-Benzylcarbamoyl-4-oxo-azetidin-2-yloxymethyl)-3-methyl-butylcarbamoyl]-2,2-dimethyl-propyl}-carbamic acid tert-butyl ester], the pIC50 (in general, the IC50 on a negative log10 scale, so that one unit is a factor of ten) was less than 4.12. `C[C@@H](NC(=O)N1C(=O)CC1SCc1cccnc1)c1ccccc1` (stereo partly drawn) [2-Oxo-4-(pyridin-3-ylmethylsulfanyl)-azetidine-1-carboxylic acid ((R)-1-phenyl-ethyl)-amide] gave a pIC50 of 4.19. In the case of `C[C@@H](NC(=O)N1C(=O)CC1SCc1ccncc1)c1ccccc1` (stereo partly drawn) [2-Oxo-4-(pyridin-4-ylmethylsulfanyl)-azetidine-1-carboxylic acid ((R)-1-phenyl-ethyl)-amide] it was 4.68; in that of `CC[C@@H](NC(=O)N1C(=O)[C@@H](C)[C@@H]1SCc1ccccn1)c1ccccc1` [(3R,4S)-3-Methyl-2-oxo-4-(pyridin-2-ylmethylsulfanyl)-azetidine-1-carboxylic acid ((R)-1-phenyl-propyl)-amide], 6.14. `O=C1CC(SCc2ccccn2)N1C(=O)N[C@H](CO)c1ccccc1` (stereo partly drawn) [2-Oxo-4-(pyridin-2-ylmethylsulfanyl)-azetidine-1-carboxylic acid ((S)-2-hydroxy-1-phenyl-ethyl)-amide] had a pIC50 of less than 4.12.

The record behind these values is BindingDB's records for doi:10.1016/s0960-894x(98)00240-6 (Boehringer Ingelheim (Canada), 1999).
